Results on 30 compounds are retold here after patent US8575158B2, “1-phenyl-substituted heterocyclyl derivatives and their use as prostaglandin D2 receptor modulators” (Actelion Pharmaceuticals Ltd., priority 2010, dated 2013).

One assay addresses T1, hCRTH2 receptor (Homo sapiens, UniProt Q9Y5Y4).
T1 construct: expressed in transfected cells; host or cells: HEK293
T1 sequence (Q9Y5Y4 1-395): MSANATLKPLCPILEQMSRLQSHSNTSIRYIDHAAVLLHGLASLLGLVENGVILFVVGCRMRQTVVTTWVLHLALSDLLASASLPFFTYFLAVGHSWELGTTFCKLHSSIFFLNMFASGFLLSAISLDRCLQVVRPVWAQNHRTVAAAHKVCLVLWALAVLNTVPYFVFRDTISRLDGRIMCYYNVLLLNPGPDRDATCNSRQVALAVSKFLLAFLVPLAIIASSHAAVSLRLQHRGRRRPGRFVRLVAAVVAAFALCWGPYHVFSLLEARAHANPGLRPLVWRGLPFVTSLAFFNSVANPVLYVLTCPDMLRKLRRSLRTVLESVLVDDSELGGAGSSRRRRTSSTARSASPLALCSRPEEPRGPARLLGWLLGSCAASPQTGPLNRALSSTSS
As to the kind of experiment: Radioligand displacement assay (3H-PGD2) on hCRTH2 receptor membranes. Format: binding. The conditions noted are these: antagonistic activity, 3H-PGD2 radioligand displacement, HEK293-hCRTH2 membranes.
Turning to `O=C(O)COc1ccc(Cl)cc1C1c2ccccc2CN1C(=O)CCn1ncc2ccc(F)cc21` (single isomer, unassigned) [Example 534, (4-Chloro-2-{2-[3-(6-fluoro-indazol-1-yl)-propionyl]-2,3-dihydro-1H-isoindol-1-yl}-phenoxy)-acetic acid], the IC50 (commonly the midpoint of a concentration-inhibition curve) turned out to be 12.9 nM.
Regarding `O=C(O)COc1ccc(Cl)cc1C1c2ccccc2CN1C(=O)CCn1ncc2c(F)cccc21` (single isomer, unassigned) [Example 535, (4-Chloro-2-{2-[3-(4-fluoro-indazol-1-yl)-propionyl]-2,3-dihydro-1H-isoindol-1-yl}-phenoxy)-acetic acid], the IC50 worked out at 15.1 nM.
The same measure, in the same setting: next, `O=C(O)COc1ccc(Cl)cc1C1c2ccccc2CN1C(=O)CCn1ncc2cccc(Cl)c21` (single isomer, unassigned) [Example 536]: 110 nM; `O=C(O)COc1ccc(Cl)cc1C1c2ccccc2CN1C(=O)CCn1ncc2cccc(F)c21` (single isomer, unassigned) [Example 537, (4-Chloro-2-{2-[3-(7-fluoro-indazol-1-yl)-propionyl]-2,3-dihydro-1H-isoindol-1-yl}-phenoxy)-acetic acid]: 25.8 nM; `Cc1nn(CCC(=O)N2Cc3ccccc3C2c2cc(Cl)ccc2OCC(=O)O)c2cccc(F)c12` (single isomer, unassigned) [Example 538, (4-Chloro-2-{2-[3-(4-fluoro-3-methyl-indazol-1-yl)-propionyl]-2,3-dihydro-1H-isoindol-1-yl}-phenoxy)-acetic acid]: 704 nM.
`Cc1nn(CCC(=O)N2Cc3ccccc3C2c2cc(Cl)ccc2OCC(=O)O)c2cccc(Cl)c12` (single isomer, unassigned) [Example 539] registered an IC50 of 235 nM.
The compound `Cc1nn(CCC(=O)N2Cc3ccccc3C2c2cc(Cl)ccc2OCC(=O)O)c2c(F)cccc12` (single isomer, unassigned) [Example 540] gave an IC50 of 633 nM.
Turning to `Cc1nn(CCC(=O)N2Cc3ccccc3C2c2cc(Cl)ccc2OCC(=O)O)c2cc(F)ccc12` (single isomer, unassigned) [Example 541, (4-Chloro-2-{2-[3-(6-fluoro-3-methyl-indazol-1-yl)-propionyl]-2,3-dihydro-1H-isoindol-1-yl}-phenoxy)-acetic acid], the IC50 is 865 nM.
In turn, `Cc1nn(CCC(=O)N2Cc3ccccc3C2c2cc(Cl)ccc2OCC(=O)O)c2cc(Cl)ccc12` (single isomer, unassigned) [Example 542, (4-Chloro-2-{2-[3-(6-chloro-3-methyl-indazol-1-yl)-propionyl]-2,3-dihydro-1H-isoindol-1-yl}-phenoxy)-acetic acid] showed an IC50 of 881 nM.
Compound `O=C(O)COc1ccc(Cl)cc1C1c2ccccc2CN1C(=O)CCn1ncc2cc(F)ccc21` (single isomer, unassigned) [Example 543, (4-Chloro-2-{2-[3-(5-fluoro-indazol-1-yl)-propionyl]-2,3-dihydro-1H-isoindol-1-yl}-phenoxy)-acetic acid] came in with an IC50 of 353 nM.
Compound `Cc1nn(CCC(=O)N2Cc3ccccc3C2c2cc(Cl)ccc2OCC(=O)O)c2ccccc12` (single isomer, unassigned) [Example 545, (4-Chloro-2-{2-[3-(3-methyl-indazol-1-yl)-propionyl]-2,3-dihydro-1H-isoindol-1-yl}-phenoxy)-acetic acid] returned an IC50 of 982 nM.
As for `O=C(O)COc1ccc(Cl)cc1C1c2ccccc2CN1C(=O)CCn1ncc2ccc(F)cc21` (single isomer, unassigned) [Example 546, (4-Chloro-2-{2-[3-(6-fluoro-indazol-1-yl)-propionyl]-2,3-dihydro-1H-isoindol-1-yl}-phenoxy)-acetic acid], the IC50 is 210 nM. Against the preceding compound, the IC50 is about 4.7-fold lower.
For `O=C(O)COc1ccc(Cl)cc1C1c2ccccc2CN1C(=O)CCn1ncc2c(F)cccc21` (single isomer, unassigned) [Example 547, (4-Chloro-2-{2-[3-(4-fluoro-indazol-1-yl)-propionyl]-2,3-dihydro-1H-isoindol-1-yl}-phenoxy)-acetic acid], the IC50 was 272 nM. The IC50 values of the last two compounds are within 1.5-fold of each other.
The compound `O=C(O)COc1ccc(Cl)cc1C1c2ccccc2CN1C(=O)CCn1ncc2cccc(Cl)c21` (single isomer, unassigned) [Example 548] registered an IC50 of 715 nM. This IC50 lies about 2.6-fold higher than the previous one.
`O=C(O)COc1ccc(Cl)cc1C1c2ccccc2CN1C(=O)CCn1ncc2cccc(F)c21` (single isomer, unassigned) [Example 551, (4-Chloro-2-{2-[3-(7-fluoro-indazol-1-yl)-propionyl]-2,3-dihydro-1H-isoindol-1-yl}-phenoxy)-acetic acid] displayed an IC50 of 292 nM.

The assay is the same for the next values; noted with them: antagonistic activity; 3H-PGD2 displacement on HEK293-hCRTH2 membrane fragments.
As to `O=C(O)COc1ccc(Cl)cc1C1c2ccccc2CCN1C(=O)[C@@H]1C[C@H]1c1cccc(Cl)c1` (single isomer, unassigned; diastereoisomer 1) [Example 151, (±)-(4-Chloro-2-{2-[(trans)-2-(3-chloro-phenyl)-cyclopropanecarbonyl]-1,2,3,4-tetrahydro-isoquinolin-1-yl}-phenoxy)-acetic acid (diastereoisomer 1)], the IC50 is 264 nM.
For the compound `O=C(O)COc1ccc(Cl)cc1C1c2ccccc2CCN1C(=O)[C@@H]1C[C@H]1c1cccc(Cl)c1` (single isomer, unassigned; diastereoisomer 2) [Example 152, (±)-(4-Chloro-2-{2-[(trans)-2-(3-chloro-phenyl)-cyclopropanecarbonyl]-1,2,3,4-tetrahydro-isoquinolin-1-yl}-phenoxy)-acetic acid (diastereoisomer 2)], the IC50 was found to be 33.4 nM.
On the same count and under the same terms, next, `C[C@H](Oc1ccc(F)cc1C1c2ccccc2CCN1C(=O)OCc1ccccc1)C(=O)O` (stereo partly drawn) [Example 2, 1-[2-((S)-1-Carboxy-ethoxy)-5-fluoro-phenyl]-3,4-dihydro-1H-isoquinoline-2-carboxylic acid benzyl ester]: 499 nM; `C[C@@H](Oc1ccc(F)cc1C1c2ccccc2CCN1C(=O)OCc1ccccc1)C(=O)O` (stereo partly drawn) [Example 8, 1-[2-((R)-1-Carboxy-ethoxy)-5-fluoro-phenyl]-3,4-dihydro-1H-isoquinoline-2-carboxylic acid benzyl ester]: 39.5 nM.
`C[C@@H](Oc1ccc(C#N)cc1C1c2ccccc2CCN1C(=O)OCc1ccccc1)C(=O)O` (stereo partly drawn) [Example 13, 1-[2-((R)-1-Carboxy-ethoxy)-5-cyano-phenyl]-3,4-dihydro-1H-isoquinoline-2-carboxylic acid benzyl ester] displayed an IC50 of 11 nM.
For the compound `N#Cc1ccc(OCC(=O)O)c([C@@H]2c3ccccc3CCN2C(=O)OCc2ccccc2)c1` [Example 25, (S)-1-(2-Carboxymethoxy-5-cyano-phenyl)-3,4-dihydro-1H-isoquinoline-2-carboxylic acid benzyl ester], the IC50 came to 2.52 nM.
For the compound `O=C(O)COc1ccc(Cl)cc1[C@@H]1c2ccccc2CCN1C(=O)OCc1ccccc1` [Example 26, (S)-1-(2-Carboxymethoxy-5-chloro-phenyl)-3,4-dihydro-1H-isoquinoline-2-carboxylic acid benzyl ester], the IC50 came out at 4.52 nM.
The compound `C[C@@H](Oc1ccc(F)cc1[C@@H]1c2ccccc2CCN1C(=O)OCc1ccccc1)C(=O)O` [Example 27, (S)-1-[2-((R)-1-Carboxy-ethoxy)-5-fluoro-phenyl]-3,4-dihydro-1H-isoquinoline-2-carboxylic acid benzyl ester] displayed an IC50 of 12.1 nM.
`C[C@H](Oc1ccc(F)cc1[C@@H]1c2ccccc2CCN1C(=O)OCc1ccccc1)C(=O)O` [Example 28, (S)-1-[2-((S)-1-Carboxy-ethoxy)-5-fluoro-phenyl]-3,4-dihydro-1H-isoquinoline-2-carboxylic acid benzyl ester] gave an IC50 of 443 nM.
On to `O=C(O)COc1ccc(Cl)cc1[C@@H]1c2cccc(F)c2CCN1C(=O)OCc1ccccc1` [Example 31, (S)-1-(2-Carboxymethoxy-5-chloro-phenyl)-5-fluoro-3,4-dihydro-1H-isoquinoline-2-carboxylic acid benzyl ester], for which the IC50 turned out to be 1.41 nM.
Still for that read-out and setting: next, `N#Cc1ccc(OCC(=O)O)c([C@@H]2c3cccc(F)c3CCN2C(=O)OCc2ccccc2)c1` [Example 32, (S)-1-(2-Carboxymethoxy-5-cyano-phenyl)-5-fluoro-3,4-dihydro-1H-isoquinoline-2-carboxylic acid benzyl ester]: 1.99 nM.
Take `O=C(O)COc1ccc(Cl)cc1C1c2ccccc2CCN1C(=O)C1CCc2ccccc2C1` (stereo not drawn) [Example 77, {4-Chloro-2-[2-(1,2,3,4-tetrahydro-naphthalene-2-carbonyl)-1,2,3,4-tetrahydro-isoquinolin-1-yl]-phenoxy}-acetic acid]: the IC50 was determined as 134 nM.
As for `O=C(O)COc1ccc(Cl)cc1C1c2ccccc2CCN1C(=O)CCN1C(=O)CSC1c1ccccc1` (stereo not drawn) [Example 84, (4-Chloro-2-{2-[3-(4-oxo-2-phenyl-thiazolidin-3-yl)-propionyl]-1,2,3,4-tetrahydro-isoquinolin-1-yl}-phenoxy)-acetic acid], the IC50 came out at 28.4 nM. This IC50 is about 4.7-fold lower than that of the compound before.
On the same count and under the same terms, next, `O=C(O)COc1ccc(Cl)cc1[C@@H]1c2ccccc2CCN1C(=O)OCc1ccccc1Cl` [Example 174, (S)-1-(2-Carboxymethoxy-5-chloro-phenyl)-3,4-dihydro-1H-isoquinoline-2-carboxylic acid 2-chloro-benzyl ester]: 5.75 nM.
Turning to `C[C@@H](Oc1ccc(Cl)cc1C1c2ccccc2CCN1C(=O)OCc1ccccc1)C(=O)O` (stereo partly drawn) [Example 220, 1-[2-((R)-1-Carboxy-ethoxy)-5-chloro-phenyl]-3,4-dihydro-1H-isoquinoline-2-carboxylic acid benzyl ester], the IC50 turned out to be 21 nM.
